Measurements: patent US7476687B2, “Substituted furo[2,3-g]indazoles for the treatment of glaucoma” (Alcon, Inc., priority 2003, dated 2009)

Legend:
5HT2A(rat) [1] = biological target: T1, 5HT2A(rat) (Rattus norvegicus, UniProt P14842); test: 5-HT2 Receptor Binding Assay ([125I]DOI competition, cerebral cortex homogenates); set-up: Aliquots of post mortem rat or human cerebral cortex homogenates (400 μL) dispersed in 50 mM TrisHCl buffer; from tissue; host or cells: post mortem rat cerebral cortex homogenate; conditions: inhibition of [125I]DOI binding
T1 sequence (P14842 whole entry): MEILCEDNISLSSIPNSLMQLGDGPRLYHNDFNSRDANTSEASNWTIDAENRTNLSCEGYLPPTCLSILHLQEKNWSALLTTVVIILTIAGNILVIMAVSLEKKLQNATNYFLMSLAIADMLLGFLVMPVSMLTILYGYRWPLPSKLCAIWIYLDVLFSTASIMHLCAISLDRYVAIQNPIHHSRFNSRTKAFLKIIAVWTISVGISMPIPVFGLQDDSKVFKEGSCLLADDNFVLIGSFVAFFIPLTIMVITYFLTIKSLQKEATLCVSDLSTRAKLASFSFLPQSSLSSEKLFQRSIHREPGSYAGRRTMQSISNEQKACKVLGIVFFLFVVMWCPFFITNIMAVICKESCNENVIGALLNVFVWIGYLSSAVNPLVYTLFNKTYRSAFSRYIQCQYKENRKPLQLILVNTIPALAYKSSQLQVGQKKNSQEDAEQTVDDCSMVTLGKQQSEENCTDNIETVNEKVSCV
Description: 5-HT2 Receptor Binding Assay
Aliquots of post mortem rat or human cerebral cortex homogenates (400 μL) dispersed in 50 mM TrisHCl buffer (pH 7.4) are incubated with [^125I]DOI (80 pM final) in the absence or presence of methiothepin (10 μM final) to define total and non-specific binding, respectively, in a total volume of 0.5 mL. The assay mixture is incubated for 1 hour at 23° C. in polypropylene tubes and the assays terminated by rapid vacuum filtration over Whatman GF/B glass fiber filters previously soaked in 0.3% polyethyleneimine using ice-cold buffer. Test compounds (at different concentrations) are substituted for methiothepin. Filter-bound radioactivity is determined by scintillation spectrometry on a beta counter. The data are analyzed using a non-linear, iterative curve-fitting computer program [Trends Pharmacol. Sci., 16, 413 (1995)] to determine the compound affinity parameter. The concentration of the compound needed to inhibit the [^125I]DOI binding by 50% of the maximum is termed the IC50 or Ki value.

5HT2A(rat) [2] = biological target: T1, 5HT2A(rat); test: 5HT2 Functional Assay: [Ca2+]i Mobilization (FLIPR, A7r5 cells); type: cell-based; set-up: endogenous in cells; host or cells: A7r5 rat vascular smooth muscle cells; conditions: for EC50: [Ca2+]i mobilization, rat vascular smooth muscle cells A7r5; for Emax: percentage of maximum 5-HT-induced response, A7r5 cells
Description: The receptor-mediated mobilization on intracellular calcium ([Ca^2+]i) was studied using the Fluorescence Imaging Plate Reader (FLIPR) instrument. Rat vascular smooth muscle cells, A7r5, were grown in a normal media of DMEM/10% FBS and 10 μg/mL gentamycin. Confluent cell monolayers were trypsinized, pelleted, and re-suspended in normal media. Cells were seeded in a 50 μL volume at a density of 20,000 cells/well in a black wall, 96-well tissue culture plate and grown for 2 days.
On the day of the experiment, one vial of FLIPR Calcium Assay Kit dye was re-suspended in 50 mL of a FLIPR buffer consisting of Hank's Balanced Salt Solution (HBSS), 20 mM HEPES, and 2.5 mM probenecid, pH 7.4. Cells were loaded with the calcium-sensitive dye by addition of an equal volume (50 μL) to each well of the 96-well plate and incubated with dye for 1 h at 23° C.
Compounds were diluted 1:50 in 20% DMSO/20% Ethanol. For “hit” screening, compounds were further diluted 1:10 in FLIPR buffer and tested at a final concentration of 10 μM.
The compound plate and cell plate were placed in the FLIPR instrument. At the beginning of an experimental run, a signal test was performed to check the basal fluorescence signal from the dye-loaded cells and the uniformity of the signal across the plate. The basal fluorescence was adjusted between 8000-12000 counts by modifying the exposure time, the camera F-stop, or the laser power. Instrument settings for a typical assay were the following: laser power 0.3-0.6 W, camera F-stop F/2, and exposure time 0.4 sec. An aliquot (25 μL) of the test compound was added to the existing 100 μL dye-loaded cells at a dispensing speed of 50 μL/sec. Fluorescence data were collected in real-time at 1.0 sec intervals for the first 60 secs and at 6.0 sec intervals for an additional 120 secs.

[3] = test system: Conscious Cynomolgus Monkeys; test: IOP Response in Conscious Cynomolgus Monkeys; type: in vivo, cynomolgus monkey; conditions: right eye
Description: IOP was determined with an Alcon Pneumatonometer after light corneal anesthesia with 0.1% proparacaine. Eyes were washed with saline after each measurement. After a baseline IOP measurement, test compound was instilled in one 30 μL aliquot to the right eyes only of nine cynomolgus monkeys. Vehicle was instilled in the right eyes of six additional animals. Subsequent IOP measurements were taken at 1, 3, and 6 hours.

[4] = 1 hour after dose, 300 μg topical
[5] = 3 hours after dose, 300 μg topical
[6] = 6 hours after dose, 300 μg topical

Structure (SMILES) | IC50 (5HT2A(rat) [1]) [nM] | EC50 (5HT2A(rat) [2]) [nM] | Emax (5HT2A(rat) [2]) [%] | Percent IOP Reduction ± SEM [3, 4] [%] | Percent IOP Reduction ± SEM [3, 5] [%] | Percent IOP Reduction ± SEM [3, 6] [%] | Percent IOP Reduction ± SEM ([3]; 1 hour after dose, 100 μg topical) [%] | Percent IOP Reduction ± SEM ([3]; 3 hours after dose, 100 μg topical) [%] | Percent IOP Reduction ± SEM ([3]; 6 hours after dose, 100 μg topical) [%] | melting point [°C]
C[C@H](N)Cn1ncc2ccc3oc(C(=O)NCC(C)(C)CO)cc3c21 [Example 11, 1-((S)-2-Aminopropyl)-1H-furo[2,3-g]indazole-7-carboxylic acid (3-hydroxy-2,2-dimethyl-propyl)-amide] | 1.8 | 74 | 76 | 10 ± 5 | 23 ± 5 | 26 ± 5 |  |  |  | 
C[C@H](N)Cn1ncc2ccc3oc(C(N)=O)cc3c21 [Example 3, 1-((S)-2-Aminopropyl)-1H-furo[2,3-g]indazole-7-carboxylic acid amide] | 2.3 | 158 | 87 | 9 ± 4 | 23 ± 4 | 27 ± 5 |  |  |  | 
COc1cc(C[C@@H](C)N)c(OC)cc1I [(R)-DOI, reference compound] |  |  |  |  |  |  | 11 ± 5 | 25 ± 3 | 34 ± 5 | 
CNC(=O)c1cc2c(ccc3cnn(C[C@H](C)N)c32)o1.O=C(O)/C=C/C(=O)O [Example 4, 1-((S)-2-Aminopropyl)-1H-furo[2,3-g]indazole-7-carboxylic acid methyl amide fumarate] | 0.81 | 54 | 98 | 13 ± 3 | 30 ± 4 | 31 ± 4 |  |  |  | 180 to 182
